Source: patent publication US20210130769A1, “Method for Single Cell Encapsulation via Metabolic Glycoengineering and Copper-Free Click Chemistry” (The Board of Trustees Of the Leland Stanford Junior …, priority 2019, published 2021)
Entries after “also recorded” stand apart in the source; their conditions may differ.

Tested on: actin polymerization
Assay: Inhibition study: actin polymerization inhibitor/activator, VEGFB ELISA
Assay type: cell-based, human
Details: 24 hr
Description: After cell encapsulation with two different molecular weight polymers such as 5 kDa and 30 kDa, the cells were rinsed and resuspended in the media containing actin polymerization inhibitor (Cytochalastin D (CytoD): 2 μM) and activator (lysophosphatidic (LPA): […] After the incubation for 24 hr with different pharmacological chemicals, the supernatants from different treatment groups were collected to measure VEGFB production from the cells using ELISAs as above.

Molecule	VEGFB concentration in NPCs coated with 30 kDa PEG (2 μM CytoD)	VEGFB production in NPCs coated with 5 kDa PEG (2 μM CytoD)	VEGFB production in 30 kDa encapsulated NPCs (LPA)
C=C1[C@@H](C)[C@H]2[C@H](Cc3ccccc3)NC(=O)[C@]23[C@H](OC(C)=O)/C=C/[C@@](C)(O)C(=O)[C@@H](C)C/C=C/[C@H]3[C@@H]1O [CytoD, Cytochalastin D]	not significantly different	significantly different from other groups; also recorded: increased VEGFB production	–
lysophosphatidic acid [LPA]	–	–	significantly different from other groups; also recorded: decreased production of VEGFB
